Results as given in ChEMBL document CHEMBL3272195, “Synthesis and antimicrobial activity of certain 6H-1,2,4-oxadiazin-3(2H)-ones” (1977).
Values after ≈ are worked out from the molar mass of the structure shown. Active and inactive are the calls of the source. The rule behind the calls is not given here.

Legend:
Escherichia coli [1] = assay: Antimicrobial activity against Escherichia coli after 24 hrs by broth dilution assay; assay type: functional
Human rhinovirus A13 = assay: Antiviral activity against Rhinovirus A13; assay type: functional
Human alphaherpesvirus 1 = assay: Antiviral activity against Herpes simplex virus type 1; assay type: functional, organism-based
[2] = test system: Trichophyton mentagrophytes; assay: Antimicrobial activity against Trichophyton mentagrophytes after 48 hrs by broth dilution assay; assay type: functional
Candida albicans = assay: Antimicrobial activity against Candida albicans after 48 hrs by broth dilution assay; assay type: functional
Staphylococcus aureus = assay: Antimicrobial activity against Staphylococcus aureus after 24 hrs by broth dilution assay; assay type: functional
Pseudomonas aeruginosa [3] = assay: Antimicrobial activity against Pseudomonas aeruginosa after 24 hrs by broth dilution assay; assay type: functional
Human respirovirus 3 = assay: Antiviral activity against Parainfluenza virus 3; assay type: functional, organism-based
Pseudomonas aeruginosa [4] = assay: Antimicrobial activity against Pseudomonas aeruginosa paper disc treated with 24 hrs urine sample from 100 mg/kg, po compound treated ICR mouse measured after 18 to 24 hrs by disc diffusion assay; assay type: functional, organism-based; design: dose 100 mg/kg
Escherichia coli [5] = assay: Antimicrobial activity against Escherichia coli paper disc treated with 24 hrs urine sample from 100 mg/kg, po compound treated ICR mouse measured after 18 to 24 hrs by disc diffusion assay; assay type: functional, organism-based; design: dose 100 mg/kg

Row | SMILES | MIC (Escherichia coli [1]) | Activity (Human rhinovirus A13) | Activity (Human alphaherpesvirus 1) | MIC [2] | MIC (Candida albicans) | MIC (Staphylococcus aureus) | MIC (Pseudomonas aeruginosa [3]) | Activity (Human respirovirus 3) | Activity (Pseudomonas aeruginosa [4]) | Activity (Escherichia coli [5])
1 | O=C1N=C(NO)CON1 | > 400 µM | inactive | inactive | > 400 µM | > 400 µM | > 400 µM | > 400 µM | inactive |  | 
2 | O=C1N=C(NCc2ccccc2)CON1 | 320 µM (≈ 65.7 µg/mL) | inactive | inactive | > 400 µM | > 400 µM | 400 µM (≈ 82.1 µg/mL) | > 400 µM | inactive |  | 
3 | NNC1=NC(=O)NOC1 | > 400 µM | inactive | inactive | > 400 µM | > 400 µM | > 400 µM | > 400 µM | inactive |  | 
4 | O=C1CONC(=O)N1 | 10 µM (≈ 1.16 µg/mL) | inactive | inactive | > 400 µM | > 400 µM | 20 µM (≈ 2.32 µg/mL) | 40 µM (≈ 4.64 µg/mL) | inactive | inactive | inactive
5 | O=C1N=C(NC(c2ccccc2)c2ccccc2)CON1 | 320 µM (≈ 90 µg/mL) | inactive | inactive | > 400 µM | > 400 µM | 160 µM (≈ 45 µg/mL) | 320 µM (≈ 90 µg/mL) | inactive |  | 
6 | CNC1=NC(=O)NOC1 | 320 µM (≈ 41.3 µg/mL) | inactive | inactive | 320 µM (≈ 41.3 µg/mL) | > 400 µM | 320 µM (≈ 41.3 µg/mL) | > 400 µM | inactive |  | 
7 | O=C1CON(C(=O)OCc2ccccc2)C(=O)N1 | 20 µM (≈ 5 µg/mL) | inactive | inactive | > 400 µM | > 400 µM | 80 µM (≈ 20 µg/mL) | 20 µM (≈ 5 µg/mL) | inactive | inactive | inactive
8 | CCOC(=O)CONC(N)=O | 160 µM (≈ 25.9 µg/mL) |  |  | > 400 µM | > 400 µM | 80 µM (≈ 13 µg/mL) | 320 µM (≈ 51.9 µg/mL) |  |  | 
9 | CN(C)C1=NC(=O)NOC1 | 160 µM (≈ 22.9 µg/mL) | inactive | inactive | > 400 µM | > 400 µM | 320 µM (≈ 45.8 µg/mL) | > 400 µM | inactive |  | 
10 | O=C1NC(=S)CON1Cc1ccccc1 | > 400 µM | inactive | inactive | 160 µM (≈ 35.6 µg/mL) | 320 µM (≈ 71.1 µg/mL) | > 400 µM | > 400 µM | inactive |  | 
11 | NC1=NC(=O)NOC1 | 10 µM (≈ 1.15 µg/mL) | inactive | inactive | > 400 µM | > 400 µM | 320 µM (≈ 36.8 µg/mL) | 80 µM (≈ 9.21 µg/mL) | inactive | Active | Active
12 | CN1OCC(=S)NC1=O | > 400 µM | inactive | inactive | 160 µM (≈ 23.4 µg/mL) | 400 µM (≈ 58.5 µg/mL) | > 400 µM | > 400 µM | inactive |  | 
13 | O=C1NOCC(=S)N1 | < 5 µM | inactive | inactive | 320 µM (≈ 42.3 µg/mL) | 320 µM (≈ 42.3 µg/mL) | 10 µM (≈ 1.32 µg/mL) | 20 µM (≈ 2.64 µg/mL) | inactive | inactive | inactive
